Reference: article PMC10424187, “Structure-Guided Design and Synthesis of a Pyridazinone Series of Trypanosoma cruzi Proteasome Inhibitors” (Journal of Medicinal Chemistry, 2023)
Values joined by “and” are separate entries in the source; they are usually repeats but may differ in a detail not shown here. Equal entries are not always repeated.

Assays:
[1] = tested on: intracellular T. cruzi X10/7 A1 amastigotes
[2] = target: Human 20S proteasome (Homo sapiens, UniProt P28074+P49721); test: human proteasome assay (chymotrypsin-like activity, Suc-LLVY-Rho-110-DPro); conditions: for Emax: read-out: Hs Prot Max Response (%), individual replicate
[3] = target: T. cruzi proteasome (Trypanosoma cruzi, UniProt V5BU39+V5C017); test: T. cruzi proteasome assay (chymotrypsin-like activity, Suc-LLVY-Rho-110-DPro); conditions: for Tc Prot Hill Slope / Tc Prot Max Response (%): individual replicate; for T. cruzi Prot pIC50: mean of at least three independent replicates; for Emax: read-out: Tc Prot Max Response (%), individual replicate
[4] = Mouse microsomal intrinsic clearance; type: in vitro ADME; conditions: mouse liver microsomes, scaling 52.5 mg microsomal protein/g liver
Experimental: Mouse microsomal intrinsic clearance.
This assay was conducted as previously described:
J.; Reid, I. H.; Hill, A. P.;
were prepared by adding a volume (5 µL) of the 10 mM solution to a volume (195 µL) of […]

[5] = ChromLogD; type: physicochemical; conditions: pH 7.4; read-out: Chrom LogDpH7.4
Experimental: Chrom LogD was measured as previously described:
solubility and hydrophobicity. Drug Discov. Today 2010, 15, 648−655. […]

[6] = tested on: host VERO cells
[7] = mean of at least three independent replicates
[8] = T. cruzi Prot pIC50, mean of at least three independent replicates
[9] = Tc Prot pIC50, individual replicate

T. cruzi proteasome, sequence (V5BU39 entry or part of it): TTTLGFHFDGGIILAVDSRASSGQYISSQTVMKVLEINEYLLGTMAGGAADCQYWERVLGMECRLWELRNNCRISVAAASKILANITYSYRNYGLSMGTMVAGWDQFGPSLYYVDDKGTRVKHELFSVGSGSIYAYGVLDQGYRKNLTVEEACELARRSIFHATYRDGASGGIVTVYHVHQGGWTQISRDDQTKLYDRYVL
T. cruzi proteasome, sequence (V5C017 entry or part of it): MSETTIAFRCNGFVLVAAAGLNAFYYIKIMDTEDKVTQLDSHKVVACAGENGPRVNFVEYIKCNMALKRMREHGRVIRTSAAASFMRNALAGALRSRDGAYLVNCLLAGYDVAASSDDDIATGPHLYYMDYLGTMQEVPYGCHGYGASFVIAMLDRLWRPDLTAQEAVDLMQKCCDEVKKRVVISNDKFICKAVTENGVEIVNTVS

Structure (SMILES): O=C(NC1CC1)c1cccc(NC(=O)c2ccc(=O)n(Cc3ccccc3)n2)c1 [Compound 5, 1-Benzyl-N-(3-(cyclopropylcarbamoyl)phenyl)-6-oxo-1,6-dihydropyridazine-3-carboxamide]
- EC50 [1]: 7940 nM
- Emax [1]: 73% and 75% and 70% and 81% and 55% and 80% and 83%
- Hs Prot Max Response (%) ([2]; individual replicate): 18% and 4% and 2% and 9% and 19% and 28% and 3% and 8% and 12% and 13% and 11% and 20% and 10% and 15%
- Hs Prot pIC50 ([2]; individual replicate): < 4
- Hs Prot pIC50 [2, 7]: <4
- IC50 [3, 8]: 631 nM
- Tc Prot Hill Slope [3]: 0.5 and 0.8 and 0.9 and 1.1 and 0.95 and 1.0 and 0.74 and 0.7 and 0.6
- Tc Prot Max Response (%) [3]: 105% and 88% and 77% and 79% and 81% and 80% and 73% and 74% and 75% and 78%

Structure (SMILES): CN(C(=O)c1ccc(=O)n(Cc2ccccc2)n1)c1cccc(C(=O)NC2CC2)c1 [Compound 6, 1-Benzyl-N-(3-(cyclopropylcarbamoyl)phenyl)-N-methyl-6-oxo-1,6-dihydropyridazine-3-carboxamide]
- EC50 [1]: > 50100 nM
- Mouse CLi [4]: 11 mL/min/g
- chromatographic logD [5]: 3.3
- Hs Prot Max Response (%) ([2]; individual replicate): 28% and 21% and 6%
- Hs Prot pIC50 ([2]; individual replicate): < 4
- Hs Prot pIC50 [2, 7]: <4
- IC50 [3, 8]: > 100000 nM
- IC50 [3, 9]: > 100000 nM
- T. cruzi Prot pIC50 [3]: complete loss of activity
- Emax [3]: 30%

Structure (SMILES): CN(C(=O)c1cccc(NC(=O)c2ccc(=O)n(Cc3ccccc3)n2)c1)C1CC1 [Compound 7, 1-Benzyl-N-(3-(cyclopropyl(methyl)carbamoyl)phenyl)-6-oxo-1,6-dihydropyridazine-3-carboxamide]
- EC50 [1]: > 50100 nM
- Emax [1]: 42%
- Mouse CLi [4]: 19 mL/min/g
- chromatographic logD [5]: 4.5
- Hs Prot Max Response (%) ([2]; individual replicate): 20% and 27% and 10%
- Hs Prot pIC50 ([2]; individual replicate): < 4
- Hs Prot pIC50 [2, 7]: <4
- IC50 [3, 8]: 20000 nM
- IC50 [3, 9]: 25100 nM and > 100000 nM and 15800 nM
- Tc Prot Hill Slope [3]: 0.8 and 0.75
- Tc Prot Max Response (%) [3]: 75% and 49% and 40% and 61%
- EC50 [6]: > 50100 nM
- Emax [6]: 11%

Structure (SMILES): COc1cccc(Cn2nc(C(=O)Nc3ccc(F)c(C(=O)NC4CC4)c3)ccc2=O)c1 [Compound 13, N-(3-(Cyclopropylcarbamoyl)-4-fluorophenyl)-1-(3-methoxybenzyl)-6-oxo-1,6-dihydropyridazine-3-carboxamide]
- EC50 [1]: > 50100 nM
- Emax [1]: 23%
- Mouse CLi [4]: 25 mL/min/g
- chromatographic logD [5]: 5.5
- Hs Prot Max Response (%) ([2]; individual replicate): 7%
- Hs Prot pIC50 ([2]; individual replicate): < 4
- Hs Prot pIC50 [2, 7]: <4
- Emax [2]: 9%
- IC50 [3, 8]: > 100000 nM
- IC50 [3, 9]: > 100000 nM
- Tc Prot Max Response (%) [3]: 2% and 10%
- T. cruzi Prot pIC50 [3]: complete loss of potency

Structure (SMILES): COc1ccc(Cn2nc(C(=O)Nc3ccc(F)c(C(=O)NC4CC4)c3)ccc2=O)cc1F [Compound 15, N-[3-(Cyclopropylcarbamoyl)-4-fluorophenyl]-1-[(3-fluoro-4-methoxy-phenyl)methyl]-6-oxo-pyridazine-3-carboxamide]
- EC50 [1]: 158 nM
- Emax [1]: 95% and 98% and 93% and 90% and 85% and 94% and 89% and 88%
- Hs Prot Max Response (%) ([2]; individual replicate): 17% and 16% and 19% and 12% and 6% and 8% and 5% and 1%
- Hs Prot pIC50 ([2]; individual replicate): < 4
- Hs Prot pIC50 [2, 7]: <4

Structure (SMILES): COc1ccc(Cn2nc(C(=O)Nc3ccc(F)c(C(=O)N[C@H]4C[C@H](OC)C4)c3)ccc2=O)cc1 [Compound 19, N-(4-Fluoro-3-((trans-3-methoxycyclobutyl)carbamoyl)phenyl)-1-(4-methoxybenzyl)-6-oxo-1,6-dihydropyridazine-3-carboxamide]
- Emax [1]: 86% and 80% and 94% and 101% and 90% and 88%
- Hs Prot Max Response (%) ([2]; individual replicate): 14%
- Hs Prot pIC50 ([2]; individual replicate): < 4
- Hs Prot pIC50 [2, 7]: <4
- Emax [2]: 16%
- IC50 [3, 9]: 31.6 nM
- Tc Prot Hill Slope [3]: 1.0 and 1.1 and 0.9
- Tc Prot Max Response (%) [3]: 84% and 95%
- Emax [3]: 78%

Structure (SMILES): COc1ccc(Cn2nc(C(=O)Nc3ccc(F)c(C(=O)N[C@H]4C[C@H](OC)C4)c3)ccc2=O)cc1F [Compound 20, N-(4-Fluoro-3-((trans-3-methoxycyclobutyl)carbamoyl)phenyl)-1-(3-fluoro-4-methoxybenzyl)-6-oxo-1,6-dihydropyridazine-3-carboxamide]
- Emax [1]: 100% and 94% and 92% and 97%
- Hs Prot Max Response (%) ([2]; individual replicate): 23%
- Hs Prot pIC50 ([2]; individual replicate): < 4
- Hs Prot pIC50 [2, 7]: <4
- Emax [2]: 20%
- IC50 [3, 8]: 6.31 nM
- IC50 [3, 9]: 6.31 nM
- Tc Prot Hill Slope [3]: 0.9
- Tc Prot Max Response (%) [3]: 63% and 86%

Structure (SMILES): COc1ccc(Cn2nc(C(=O)Nc3ccc(F)c(C(=O)NCCN4CCOCC4)c3)ccc2=O)cc1F [Compound 22, 1-[(3-Fluoro-4-methoxy-phenyl)methyl]-N-[4-fluoro-3-(2-morpholinoethylcarbamoyl)phenyl]-6-oxo-pyridazine-3-carboxamide]
- Emax [1]: 99% and 93% and 95% and 97% and 98% and 91% and 96%
- Hs Prot Max Response (%) ([2]; individual replicate): 7% and 14% and 2%
- IC50 [3, 9]: 15.8 nM
- Tc Prot Hill Slope [3]: 1.0 and 0.9
- Tc Prot Max Response (%) [3]: 80% and 81%
- Emax [3]: 72%

Structure (SMILES): COc1ccc(Cn2nc(C(=O)Nc3ccc(F)c(C(=O)N[C@H]4C[C@H](N5CCOCC5)C4)c3)ccc2=O)cc1F [Compound 23, N-(4-Fluoro-3-((trans-3-morpholinocyclobutyl)carbamoyl)phenyl)-1-(3-fluoro-4-methoxybenzyl)-6-oxo-1,6-dihydropyridazine-3-carboxamide]
- Emax [1]: 96% and 93% and 98% and 95% and 97% and 94%
- Hs Prot Max Response (%) ([2]; individual replicate): 15% and 17%
- Hs Prot pIC50 ([2]; individual replicate): < 4
- Hs Prot pIC50 [2, 7]: <4
- Emax [2]: 13%
- IC50 [3, 8]: 7.94 nM
- IC50 [3, 9]: 5.01 nM
- Tc Prot Hill Slope [3]: 1.2 and 1.1
- Tc Prot Max Response (%) [3]: 86%
- Emax [3]: 88%

Structure (SMILES): COc1ccc(Cn2nc(C(=O)Nc3ccc(F)c(C(=O)N[C@H]4C[C@@H](N5CCOCC5)C4)c3)ccc2=O)cc1F [Compound 24, N-(4-Fluoro-3-((cis-3-morpholinocyclobutyl)carbamoyl)phenyl)-1-(3-fluoro-4-methoxybenzyl)-6-oxo-1,6-dihydropyridazine-3-carboxamide]
- Emax [1]: 93% and 95% and 98% and 96%
- Hs Prot Max Response (%) ([2]; individual replicate): 6.38% and 29% and 23%
- Hs Prot pIC50 ([2]; individual replicate): < 4
- Hs Prot pIC50 [2, 7]: <4
- IC50 [3, 8]: 7.94 nM
- IC50 [3, 9]: 6.31 nM
- Tc Prot Hill Slope [3]: 1.1
- Tc Prot Max Response (%) [3]: 85% and 87%
- Emax [3]: 82%
- Emax [6]: 16%

Structure (SMILES): COc1ccc(Cn2nc(C(=O)Nc3ccc(F)c(C(=O)N[C@H](C)CO)c3)ccc2=O)cc1F [Compound 25, (R)-N-(4-Fluoro-3-((1-hydroxypropan-2-yl)carbamoyl)phenyl)-1-(3-fluoro-4-methoxybenzyl)-6-oxo-1,6-dihydropyridazine-3-carboxamide]
- EC50 [1]: 398 nM
- Emax [1]: 92% and 96% and 91% and 89% and 95% and 99%
- Hs Prot Max Response (%) ([2]; individual replicate): 0.497% and 2.25% and 10% and 4.33% and 5% and 2.24% and 9%
- Hs Prot pIC50 ([2]; individual replicate): < 4
- Hs Prot pIC50 [2, 7]: <4
- IC50 [3, 8]: 50.1 nM
- IC50 [3, 9]: 39.8 nM and 31.6 nM and 63.1 nM
- Tc Prot Hill Slope [3]: 1.1 and 0.95 and 0.9 and 1.0
- Tc Prot Max Response (%) [3]: 80% and 82% and 79%
- Emax [3]: 81%

Structure (SMILES): CNC(=O)c1cc(NC(=O)c2ccc(=O)n(Cc3ccc(OC)c(F)c3)n2)ccc1F [Compound 27, 1-[(3-Fluoro-4-methoxy-phenyl)methyl]-N-[4-fluoro-3-(methylcarbamoyl)phenyl]-6-oxo-pyridazine-3-carboxamide]
- EC50 [1]: 316 nM
- Emax [1]: 99% and 88% and 89% and 96% and 90% and 97% and 94%
- Hs Prot Max Response (%) ([2]; individual replicate): 3.52%
- Hs Prot pIC50 ([2]; individual replicate): < 4
- Hs Prot pIC50 [2, 7]: <4
- Emax [2]: 6%
- IC50 [3, 8]: 6.31 nM
- IC50 [3, 9]: 3.98 nM and 10 nM and 7.94 nM
- Tc Prot Hill Slope [3]: 1.0 and 0.9
- Tc Prot Max Response (%) [3]: 60% and 80% and 81%
